From BindingDB's records for doi:10.1016/0960-894X(96)00183-7 (1996)

Biological target: alpha-L-fucosidase (Bos taurus)
Test: Compound was tested for inhibition of alpha-fucosidase from bovine kidney.

With `O[C@H]1[C@H](O)[C@H](O)CN(Cc2ccccc2)C[C@H]1O` [1-Benzyl-azepane-3,4,5,6-tetraol] the Ki was 23.4 µM.
